For 15 molecules, IC50 and GI50 results are on record in patent US8143255B2, “Heteroalkyl linked pyrimidine derivatives” (S*BIO Pte Ltd., priority 2005, dated 2012).

The target in assay [1] is T1, CDK2/CyclinA (Homo sapiens, UniProt P24941).
T1 construct: purchased Invitrogen PV3267
Nature of the assay: In vitro kinase activity assay (PKLight), CDK2/Cyclin A. Type of assay: biochemical. As to conditions: recombinant CDK2/Cyclin A, RbING substrate, 0.5 μM ATP, 2 hr. As for the experimental part: (§1) All assays were carried out in 384-well white microtiter plates using the PKLight assay system from Cambrex (East rutherford, N.J.). This assay platform is essentially a luminometdc assay for the detection of ATP in the reaction using a luciferase-coupled reaction. For CDK2/Cyclin A assay, the reaction mixture consisted of the following components in 25 μL assay buffer (50 mM Hepes pH 7.5, 10 mM MgCl2, 5 mM MnCl2, 5 mM BGP, 1 mM DTT, 0.1 mM sodium orthovanadate), 1.4 μg/mL of CDK2/Cyclin A complex, 0.5 μM of RbING substrate (Invitrogen, Cat # PV2939) and 0.5 μM of ATP. The compounds were tested at 8 concentrations prepared from 4-fold serial dilution starting at 10 μM. The reaction was incubated at room temperature for 2 hr. 13 μL of PKLight ATP detection reagent was added and the reaction was incubated for 10 min. Luminescence signals were detected on a multi-label plate reader (Victor^2 V 1420, Perkin-Elmer). The other kinase assays were identical except for the following differences in reagents. For FLT3 assays, the reaction contained 2.0 μg/mL FLT3 enzyme, 5 μM of poly(Glu,Tyr) substrate (Sigma, Cat # P0275) and 4 μM of ATP. For JAK2 assays, the reaction contained 0.6 μg/mL of JAK2 enzyme, 2 μM of poly(Glu,Ala,Tyr) substrate (Sigma, Cat # P3899) and 0.2 μM of ATP. […] The analytical software, Prism 4.0 (GraphPad Software Pte Ltd) was used to generate IC50 values from the data.

Assay [2] addresses T2, FLT3 (Homo sapiens, UniProt P36888).
T2 construct: purchased Invitrogen PV3182
T2 sequence (P36888 27-993): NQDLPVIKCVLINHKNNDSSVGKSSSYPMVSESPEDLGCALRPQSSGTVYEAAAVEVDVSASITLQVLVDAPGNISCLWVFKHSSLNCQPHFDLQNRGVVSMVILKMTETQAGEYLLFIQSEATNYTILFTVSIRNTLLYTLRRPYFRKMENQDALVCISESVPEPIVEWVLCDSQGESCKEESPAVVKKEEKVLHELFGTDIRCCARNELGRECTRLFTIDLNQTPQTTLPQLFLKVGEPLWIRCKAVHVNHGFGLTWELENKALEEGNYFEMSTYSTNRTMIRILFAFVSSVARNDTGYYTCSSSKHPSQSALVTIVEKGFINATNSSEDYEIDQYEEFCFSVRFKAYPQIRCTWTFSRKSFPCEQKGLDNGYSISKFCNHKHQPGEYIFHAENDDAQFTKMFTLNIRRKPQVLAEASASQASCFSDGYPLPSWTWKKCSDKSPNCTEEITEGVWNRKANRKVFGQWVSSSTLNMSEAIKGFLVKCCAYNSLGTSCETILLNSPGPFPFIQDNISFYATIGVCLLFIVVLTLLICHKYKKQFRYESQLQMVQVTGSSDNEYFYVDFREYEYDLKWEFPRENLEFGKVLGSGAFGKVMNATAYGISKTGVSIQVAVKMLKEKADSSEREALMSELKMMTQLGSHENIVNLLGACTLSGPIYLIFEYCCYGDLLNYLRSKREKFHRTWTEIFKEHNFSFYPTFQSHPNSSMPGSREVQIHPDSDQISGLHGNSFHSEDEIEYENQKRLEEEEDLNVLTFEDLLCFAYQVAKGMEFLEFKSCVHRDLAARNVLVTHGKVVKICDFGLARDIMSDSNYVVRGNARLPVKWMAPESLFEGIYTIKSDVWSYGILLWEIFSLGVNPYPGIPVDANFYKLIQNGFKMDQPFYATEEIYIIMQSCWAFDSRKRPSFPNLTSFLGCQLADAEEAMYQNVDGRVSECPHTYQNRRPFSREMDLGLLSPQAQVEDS
In words: In vitro kinase activity assay (PKLight), FLT3. Type of assay: biochemical. As to conditions: recombinant FLT3, poly(Glu,Tyr) substrate, 4 μM ATP. As for the experimental part:
The recombinant enzymes (CDK2/CyclinA, FLT3, JAK2 and JAK2 V617F) were purchased from Invitrogen (Cat # PV3267, 3182, 4210 and 4347 respectively). All assays were carried out in 384-well white microtiter plates using the PKLight assay system from Cambrex (East rutherford, N.J.). This assay platform is essentially a luminometdc assay for the detection of ATP in the reaction using a luciferase-coupled reaction. For CDK2/Cyclin A assay, the reaction mixture consisted of the following components in 25 μL assay buffer (50 mM Hepes pH 7.5, 10 mM MgCl2, 5 mM MnCl2, 5 mM BGP, 1 mM DTT, 0.1 mM sodium orthovanadate), 1.4 μg/mL of CDK2/Cyclin A complex, 0.5 μM of RbING substrate (Invitrogen, Cat # PV2939) and 0.5 μM of ATP. The compounds were tested at 8 concentrations prepared from 4-fold serial dilution starting at 10 μM. The reaction was incubated at room temperature for 2 hr. 13 μL of PKLight ATP detection reagent was added and the reaction was incubated for 10 min. Luminescence signals were detected on a multi-label plate reader (Victor^2 V 1420, Perkin-Elmer). The other kinase assays were identical except for the following differences in reagents. For FLT3 assays, the reaction contained 2.0 μg/mL FLT3 enzyme, 5 μM of poly(Glu,Tyr) substrate (Sigma, Cat # P0275) and 4 μM of ATP. For JAK2 assays, the reaction contained 0.6 μg/mL of JAK2 enzyme, 2 μM of poly(Glu,Ala,Tyr) substrate (Sigma, Cat # P3899) and 0.2 μM of ATP. For JAK2 V617F mutant assays, the reaction contained 8.0 μg/mL of JAK2 mutant enzyme, 2 μM of poly(Glu,Ala,Tyr) substrate (Sigma, Cat # P3899) and 0.2 μM of ATP. The analytical software, Prism 4.0 (GraphPad Software Pte Ltd) was used to generate IC50 values from the data. […] IC50 values are shown below in Table 3.

Assay [3] has as its target T3, JAK2 (Homo sapiens, UniProt O60674).
T3 construct: purchased Invitrogen PV4210
Nature of the assay: In vitro kinase activity assay (PKLight), JAK2. Type of assay: biochemical. The conditions noted are these: recombinant JAK2, poly(Glu,Ala,Tyr) substrate, 0.2 μM ATP. As for the experimental part: as §1

Assay [4] has as its system HL60 (acute myeloid leukemia cell line). In words: Cell-based proliferation assay, HL60. As to conditions: Homo sapiens, HL-60; HL60 cells, 96 h treatment. On the procedure: (§2) Human cancer cell lines HL60 (acute myeloid leukemia cell line), Colo205 (colon adenocarcinoma cell line), HEL92.1.7 (erythroleukemia cell line), MV4-11 (acute myeloid leukemia cell line) and DU145 (metastatic prostate cancer cell line) were obtained from ATCC. They were cultivated in the media according to the ATCC work instructions. Colo205 and DU145 cells were seeded in 96-wells plate 5000 cells per cell and 1000 cells per well respectively. HEL92.1.7 and MV4-11 cells were seeded at 6000 cells per well while HL60 cells were seeded at 8000 cells per well in 96 well plate. The plates were incubated at 37° C., 5% CO2, for 24 h. Cells were treated with compounds at various concentrations for 96 h. Cell growth was then monitored using Celltiter96 Aqueous One Solution Cell Proliferation Assay from Promega (Madison Wis.). Dose response curves were plotted to determine GI50 values for the compounds using XL-fit (ID Business Solution, Emeryville, Calif.).

For assay [5], the system named is Colo205 (colon adenocarcinoma cell line). Nature of the assay: Cell-based proliferation assay, Colo205. As to conditions: Homo sapiens, COLO 205; Colo205 cells, 96 h treatment. On the procedure: as §2
The test system of assay [6] is HEL92.1.7 (erythroleukemia cell line). In words: Cell-based proliferation assay, HEL92.1.7. As to conditions: Homo sapiens, HEL 92.1.7; HEL92.1.7 cells, 96 h treatment. As for the experimental part:
as §2

Assay [7] concerns MV4-11 (acute myeloid leukemia cell line). Nature of the assay: Cell-based proliferation assay, MV4-11. As to conditions: Homo sapiens; MV4-11 cells, 96 h treatment. As for the experimental part: as §2
Assay [8] relates to DU145 (metastatic prostate cancer cell line). In words: Cell-based proliferation assay, DU145. The conditions noted are these: Homo sapiens, DU-145; DU145 cells, 96 h treatment. On the procedure:
as §2

T3 sequence (O60674 whole entry): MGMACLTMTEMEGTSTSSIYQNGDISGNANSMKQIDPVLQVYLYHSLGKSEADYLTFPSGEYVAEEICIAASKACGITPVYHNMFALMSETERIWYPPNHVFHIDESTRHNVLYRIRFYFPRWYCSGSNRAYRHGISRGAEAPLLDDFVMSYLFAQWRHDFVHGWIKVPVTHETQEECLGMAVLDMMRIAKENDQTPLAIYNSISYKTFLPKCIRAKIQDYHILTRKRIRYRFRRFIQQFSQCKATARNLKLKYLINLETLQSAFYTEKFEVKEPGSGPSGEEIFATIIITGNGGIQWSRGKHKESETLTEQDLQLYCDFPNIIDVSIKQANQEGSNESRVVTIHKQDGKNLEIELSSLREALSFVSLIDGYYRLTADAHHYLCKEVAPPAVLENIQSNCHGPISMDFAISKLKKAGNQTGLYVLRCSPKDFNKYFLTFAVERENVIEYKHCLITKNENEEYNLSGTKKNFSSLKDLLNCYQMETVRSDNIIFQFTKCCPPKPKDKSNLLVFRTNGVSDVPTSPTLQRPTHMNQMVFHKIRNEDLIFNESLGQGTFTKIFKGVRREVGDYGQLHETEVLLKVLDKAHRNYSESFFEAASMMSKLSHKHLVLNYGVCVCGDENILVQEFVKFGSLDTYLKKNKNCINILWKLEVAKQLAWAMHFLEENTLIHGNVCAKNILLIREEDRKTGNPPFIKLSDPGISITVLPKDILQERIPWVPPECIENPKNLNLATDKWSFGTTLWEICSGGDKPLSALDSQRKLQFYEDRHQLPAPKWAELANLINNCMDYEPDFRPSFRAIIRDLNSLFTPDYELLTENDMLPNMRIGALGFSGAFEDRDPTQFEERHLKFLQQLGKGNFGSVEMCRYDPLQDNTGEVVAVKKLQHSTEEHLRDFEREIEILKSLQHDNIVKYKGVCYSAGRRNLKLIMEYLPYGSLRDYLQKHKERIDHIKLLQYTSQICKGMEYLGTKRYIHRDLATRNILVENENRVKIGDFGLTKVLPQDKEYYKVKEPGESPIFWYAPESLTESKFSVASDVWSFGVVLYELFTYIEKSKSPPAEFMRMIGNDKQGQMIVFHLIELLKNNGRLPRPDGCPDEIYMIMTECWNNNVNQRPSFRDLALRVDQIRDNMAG

In general, IC50 refers to the concentration that gives 50% inhibition. Usually GI50 stands for the concentration at which growth is held to half of that of the control. Low readings indicate more potent growth inhibition, high ones less potent growth inhibition. Turning to `O=C1CC/C=C/COCc2cccc(c2)Nc2nccc(n2)-c2cccc(c2)N1` [Compound 4], the IC50 was 1000 to 5000 nM in assay [1], over 5000 nM in assay [2] and over 5000 nM in assay [3]. The GI50 in assay [4] was over 5000 nM; in assay [5] it was over 5000 nM; in assay [6], over 5000 nM; in assay [7], 1000 to 5000 nM; in assay [8], over 5000 nM.
With `CN1C/C=C/CCOc2cccc(c2)-c2ccnc(n2)Nc2ccc(OCCN3CCOCC3)c(c2)C1` [Compound 13], the IC50 in assay [1], in assay [2] and in assay [3] was at most 1000 nM in each case. In addition, the GI50 in assay [4] was at most 1000 nM; in assay [5], at most 1000 nM; in assay [7], over 5000 nM.
As to `CN1C/C=C/CC(=O)Nc2cccc(c2)-c2ccnc(n2)Nc2cccc(c2)C1` [Compound 14], the IC50 was 1000 to 5000 nM in assay [1], 1000 to 5000 nM in assay [2] and over 5000 nM in assay [3]. Also, the GI50 was over 5000 nM in assay [4], over 5000 nM in assay [5], over 5000 nM in assay [6] and 1000 to 5000 nM in assay [7].
With `C1=C/CNCc2cccc(c2)Nc2nccc(n2)-c2cccc(c2)OCC/1` [Compound 22], the IC50 in assay [1] and in assay [2] was at most 1000 nM each time.
Take `C1=C/CN(C2CC2)Cc2cccc(c2)Nc2nccc(n2)-c2cccc(c2)OCC/1` [Compound 25]: the IC50 in assay [1], in assay [2] and in assay [3] was at most 1000 nM in each case.
As to `Cc1cnc2nc1-c1cccc(c1)OCC/C=C/CN(C)Cc1cccc(c1)N2` [Compound 27], the IC50 in assay [1], in assay [2] and in assay [3] was at most 1000 nM throughout. For the same molecule, the GI50 in assay [4] was at most 1000 nM; in assay [5], 1000 to 5000 nM; in assay [6], at most 1000 nM; in assay [7], at most 1000 nM; in assay [8], 1000 to 5000 nM.
Take `C1=C\CNCc2cccc(c2)Nc2nccc(n2)-c2cccc(c2)OCC/1` [Compound 29]: the IC50 in assay [1] and in assay [2] was at most 1000 nM throughout.
Take `CN1C/C=C/CCOc2cc(ccc2N)-c2ccnc(n2)Nc2cccc(c2)C1` [Compound 38]: the IC50 in assay [1], in assay [2] and in assay [3] was at most 1000 nM in each case. In addition, the GI50 in assay [4] was at most 1000 nM; in assay [5] it was 1000 to 5000 nM.
`CN1C/C=C/CCOc2cccc(c2)-c2ccnc(n2)Nc2cc(ccn2)C1` [Compound 44]: the results for the IC50 in assay [1], in assay [2] and in assay [3] were 1000 to 5000 nM, over 5000 nM and over 5000 nM, respectively. The GI50 in assay [4], in assay [6] and in assay [7] was 1000 to 5000 nM in each case.
With `CN1C/C=C/CCOc2cccc(c2)-c2ccnc(n2)Nc2ccc(OCCN3CCCCC3)c(c2)C1` [Compound 46], the IC50 in assay [1], in assay [2] and in assay [3] was at most 1000 nM in each case. For the same molecule, the GI50 in assay [4], in assay [6] and in assay [7] was at most 1000 nM throughout.
As for `CN1C/C=C/CCOc2cccc(c2)-c2ccnc(n2)Nc2ccc(OCCn3cncn3)c(c2)C1` [Compound 61], the IC50 in assay [1], in assay [2] and in assay [3] was at most 1000 nM in each case. In addition, the GI50 in assay [4], in assay [6] and in assay [7] was at most 1000 nM each time.
Take `CN1C/C=C/COCC2=CC=C(O2)c2ccnc(n2)Nc2cccc(c2)C1` [Compound 62]: the IC50 in assay [1], in assay [2] and in assay [3] was at most 1000 nM in each case. In addition, the GI50 in assay [4] was at most 1000 nM; in assay [5] it was 1000 to 5000 nM; in assay [6], 1000 to 5000 nM; in assay [7] it was at most 1000 nM.
Take `CCS(=O)(=O)CCOc1ccc2cc1CN(C)C/C=C/CCOc1cccc(c1)-c1ccnc(n1)N2` [Compound 70]: the IC50 in assay [1], in assay [2] and in assay [3] was at most 1000 nM each time. For the same molecule, the GI50 in assay [4], in assay [5], in assay [6] and in assay [7] was at most 1000 nM each time.
As for `CN1C/C=C/COCC2=CC=C(S2)c2ccnc(n2)Nc2ccc(OCCN3CCCC3)c(c2)C1` [Compound 74], the IC50 in assay [1], in assay [2] and in assay [3] was at most 1000 nM each time. Further, the GI50 in assay [4], in assay [6] and in assay [7] was at most 1000 nM throughout.
Turning to `CN1C/C=C/CCOc2cccc(c2)-c2ccnc(n2)Nc2cc(N)cc(c2)C1` [Compound 81], the IC50 in assay [1], in assay [2] and in assay [3] was at most 1000 nM each time. For the same molecule, the GI50 in assay [4], in assay [6] and in assay [7] was at most 1000 nM in each case.
